Laboratory results published in US12435083B2, “Cyclopropyl-(hetero)aryl-substituted ethylsulphonyl-pyridine derivatives” (BOEHRINGER INGELHEIM VETMEDICA GMBH, priority 2021, dated 2025).
pEC50: −log10 of the molar value. Read-outs that look alike come from different tables or passages of the source.

Legend:
[1] = test system: adult Ctenocephalides felis fleas; assay: Contact activity against adult Ctenocephalides felis (treated surface, motility by machine vision, 24 h); details: read-out: EC80 (% motility reduction, adult C. felis, contact)
Excerpt: Example 7: Screening Method to Test Contact Activity of Compounds of Formula (I) Against Adult Ctenocephalides felis

[2] = test system: Plutella xylostella; assay: Insecticidal test on Plutella xylostella (Chinese cabbage seedling dip); details: 144 h, read-out: activity level (corrected mortality rate), Plutella xylostella
Description: Example 12: Insecticidal Test on Plutella xylostella
(§1) The compounds of formula (I) of the present invention or salts thereof were separately dispersed in water and diluted to 500 ppm. Ten adults of Plutella xylostella were released onto Chinese cabbage seedlings and allowed to lay eggs thereon. 2 days after the release of the adults, the seedling was dipped in the dispersion for about 30 seconds. After air dried, the seedling was kept in a room at 25° C. 6 days after the dip treatment, the numbers of the dead and alive insects were counted. The corrected mortality rate was calculated according to the following formula and the insecticidal activity was evaluated according to the following criteria. Corrected mortality rate (%)=100×(Survival rate in an untreated plot−Survival rate in a treated plot)/Survival rate in an untreated plot • A: the corrected mortality rate is 100% • B: the corrected mortality rate is 90 to 99% • C: the corrected mortality rate is 80 to 89% • D: the corrected mortality rate is 50 to 79%

[3] = test system: Aedes aegypti L1 larvae; assay: Activity against larvae of Aedes aegypti (L1 larvae, 384-well, image-based mortality); details: 48 h at 27° C., 384-well, read-out: EC50 (percentage of mortality, A. aegypti L1 larvae)
Description: Example 3: Screening Method to Test Activity of Compounds of Formula (I) Against Larvae of Aedes aegypti
Eight A. aegypti L1 larvae in a total volume of 64 μL water were added to 384-well microplates containing compounds formulated in 100% DMSO. The plates were incubated for 48 h at 27° C. Individual well images were acquired and analyzed using a pipeline to quantitatively assess the amount of larvae biomass accumulating at the bottom of the well. The efficacy of a compound at a given dose is expressed as “percentage of mortality” and determined by comparison to average biomass descriptors of positive and negative control wells containing 1.0 μM Fipronil or DMSO only, respectively. Dose response assay were conducted to determine an EC50 value.

[4] = test system: Laodelphax striatellus 3rd-instar nymphs; assay: Insecticidal test on Laodelphax striatellus (rice seedling dip); details: 192 h, read-out: activity level (corrected mortality rate), Laodelphax striatellus
Description: Example 13: Insecticidal Test on Laodelphax striatellus
as §1, with “Rice plant seedlings” for “Ten adults of Plutella xylostella”, “were” for “were released onto Chinese cabbage seedlings and allowed to lay eggs thereon. 2 days after the release of the adults, the seedling was”, “seedlings were put into a separate glass test tube and inoculated with ten 3rd-instar nymphs of Laodelphax striatellus and then the glass test tube” for “seedling”, “8” for “6”, “inoculation,” for “dip treatment,”

[5] = test system: Myzus persicae; assay: Insecticidal test on Myzus persicae (foliar application on potted Chinese cabbage); details: 144 h, 500 ppm, foliar application, 6 days after application, read-out: control efficacy level (control rate), Myzus persicae
Excerpt: Example 14: Insecticidal Test on Myzus persicae
The compounds of formula (I) of the present invention or salts thereof were separately dispersed in water and diluted to 500 ppm. Chinese cabbage plants were planted in plastic pots (diameter: 8 cm, height: 8 cm). Aphids (Myzus persicae) were propagated on the plants and then the number of surviving aphids was counted. The dispersion was applied to the foliage of the potted plants. After the plants were air dried, these were kept in a greenhouse. 6 days after the application, the number of the alive insects was counted on the plants. The control rate was calculated according to the following formula and the control efficacy was evaluated according to the following criteria. Control rate (%)=100−{(T×Ca)/(Ta×C)}×100 • Ta: the number of alive insects before the foliar application in a treated plot • T: the number of alive insects after the foliar application in a treated plot • Ca: the number of alive insects before the foliar application in an untreated plot • C: the number of alive insects after the foliar application in an untreated plot • A: the control rate is 100% • B: the control rate is 90 to 99% • C: the control rate is 80 to 89% • D: the control rate is 50 to 79%

[6] = test system: adult Rhipicephalus sanguineus ticks; assay: Contact activity against adult Rhipicephalus sanguineus (coated vial, mortality at 48 h); details: Rhipicephalus sanguineus
Description: Example 5: Screening Method to Test Contact Activity of Compounds of Formula (I) Against Adult Rhipicephalus sanguineus
Compounds of formula (I) formulated in 100% DMSO were diluted in a solution containing acetone and Triton X-100 (0.02%). The resulting formulation was used to coat the inner walls of glass scintillation vials and the filter paper covering the cap of the vial. Once dried, ten adult R. sanguineus ticks were added to the vials. The vials were incubated at 24° C., 95% relative humidity, and 12 hours of light/12 hours of dark until evaluation. Ticks were visually evaluated for mortality at 48 hours post-treatment. Compound efficacy at a given dose is expressed as percentage mortality. A dose response series was implemented to determine EC50 values.
(§2) The four structurally closest prior art compounds (A), (B), (C) and (D) specifically excluded from the scope of formula (I) were characterized vis-a-vis selected compounds of formula (I) with regard to their potency in in vitro screening assays against fleas (Ctenocehalides felis) and ticks (Rhipicephalus sanguineus).
(§3) However, as explained above, spectrum of action against this range of species (i.e. fleas and ticks) is a desirable property of ectoparasiticides for veterinary use. In the following table 1 comparative experimental data of the in vitro assays are shown regarding flea membrane feeding (ingestion, blood feeding) activity against Ctenocephalides felis and contact activity against Rhipicephalus sanguineus.

[7] = test system: adult Ctenocephalides felis fleas; assay: Ingestion activity (flea membrane feeding, blood feeding) against adult Ctenocephalides felis; details: Ctenocephalides felis
Excerpt: Example 6: Screening Method to Test Ingestion Activity of Compounds of Formula (I) Against Adult Ctenocephalides felis
as §2
It is important to note that compounds that show better activity versus ticks are more desirable in the animal health field, as ticks are more difficult to control than fleas. Noteworthy, in particular with regard to fleas the illustrated comparative data are based on a flea membrane feeding (ingestion, blood feeding) assay. Data from this assay are more relevant for compounds intended to be delivered systemically to an animal via oral or injectable routes. Membrane feeding assays differ to primary screening laboratory contact assays in that the latter only measure the effect of the direct contact of selected compounds on the parasite, such as the flea or the tick. The information derived from laboratory contact assays is strictly limited to the ability of the compound to be absorbed through the parasite surface and to reach its molecular target, and no information can be gleaned from these contact assays as to whether the compound would also be active when presented orally to the ectoparasite itself in a blood meal, such as with the membrane feeding assay, and certainly not when administered orally to an animal host (e.g. “in vivo”) with subsequent exposure to the ectoparasite.
as §3

[8] = 500 ppm, seedling dip, 6 days after dip treatment
[9] = 500 ppm, seedling dip, 8 days after inoculation
[10] = 48 hours post-treatment, coated vial, read-out: EC50 (percentage mortality, adult R. sanguineus, contact)
[11] = bovine blood, 24h post treatment, read-out: EC80 (% motility reduction, adult C. felis, ingestion via membrane feeding)

SMILES	EC80 ([1]; treated surface, 24h)	mortality at 500 ppm [2, 8]	mortality at 500 ppm [4, 9]	pest or weed control at 500 ppm [5]	also measured
CCn1cc(C(F)(F)F)cc2nc(-c3ncc(-c4ccc(C5CC5)cc4)cc3S(=O)(=O)CC)cc1-2 [Compound 6, 5-(4-cyclopropylphenyl)-3-(ethanesulfonyl)-2-[4-ethyl-6-(trifluoromethyl)pyrrolo[3,2-b]pyridine-2-yl]pyridine]	1 to 10 µM	100%	–	–	–
CCS(=O)(=O)c1cc(-c2ccc(C3CC3)cc2)cnc1-n1cc2cnc([S+]([O-])C(F)(F)F)cc2n1 (centres unmarked) [Compound 29, 5-(4-cyclopropylphenyl)-3-(ethanesulfonyl)-2-[6-trifluoromethanesulfinylpyrazolo[4,3-c]pyridin-2-yl]pyridine]	1 to 10 µM	–	–	–	pEC50 [3]: > 7.40
CCS(=O)(=O)c1cc(-c2ccc(C3CC3)cc2)cnc1-c1nc2cc(C(F)(F)F)cnc2o1 [Compound 40, 5-(4-cyclopropylphenyl)-3-(ethanesulfonyl)-2-[6-(trifluoromethyl)-[1,3]oxazolo[5,4-b]pyridin-2-yl]pyridine]	1 to 10 µM	100%	–	–	–
CCS(=O)(=O)c1cc(-c2ccc(C3CC3)cc2)cnc1-c1nc(-c2cc(C(F)(F)F)ccn2)cn1C [Compound 55, 5-(4-cyclopropylphenyl)-3-(ethanesulfonyl)-2-[1-methyl-4-[4-(trifluoromethyl)pyridin-2-yl]imidazol-2-yl]pyridine]	–	100%	100%	100%	–
CCS(=O)(=O)c1cc(-c2cncc(C3CC3)c2)cnc1-c1nc2cc(C(F)(F)C(F)(F)F)nnc2n1C [Compound 61, 5′-cyclopropyl-5-(ethanesulfonyl)-6-[7-methyl-3-(1,1,2,2,2-pentafluoroethyl)imidazo[4,5-c]pyridazin-6-yl]-3,3′-bipyridine]	–	–	–	–	pEC50 [6, 10]: 4.00 to 5.00; pEC50 [3]: 7.30 to 7.40
CCn1cc(C(F)(F)F)cc2nc(-c3ncc(-c4ncc(C5CC5)cn4)cc3S(=O)(=O)CC)cc1-2 [Compound 92, 5-cyclopropyl-2-[5-(ethanesulfonyl)-6-[4-ethyl-6-(trifluoromethyl)pyrrolo[3,2-b]pyridin-2-yl]pyridin-3-yl]pyrimidine]	1 to 10 µM	100%	–	100%	–
CCS(=O)(=O)c1cc(-c2cnc(C3CC3)nc2)cnc1-c1nc2cc(C(F)(F)C(F)(F)F)nnc2n1C [Compound 93, 2-cyclopropyl-5-[5-(ethanesulfonyl)-6-[7-methyl-3-(1,1,2,2,2-pentafluoroethyl)imidazo[4,5-c]pyridazin-6-yl]pyridin-3-yl]pyrimidine]	< 1 µM	–	–	–	EC80 [7, 11]: 1 to 10 µM
CCS(=O)(=O)c1cc(-c2ccc(C3CC3)cc2)cnc1-c1cc2n(C(C)C)cc(C(F)(F)F)cc-2n1 [Compound 100, 5-(4-cyclopropylphenyl)-3-(ethanesulfonyl)-2-[4-isopropyl-6-(trifluoromethyl)pyrrolo[3,2-b]pyridin-2yl]pyridine]	–	–	–	–	EC80 ([1]; 24 h): 1 to 10 µM; pEC50 ([6]; 48 h, read-out: EC50 (percentage mortality, adult R. sanguineus, contact)): > 5.00; mortality at 500 ppm [2]: 100%; mortality at 500 ppm [4]: 100%
CCS(=O)(=O)c1cc(-c2ccc(C3CC3)cc2)cnc1-c1ccc(OCC(F)(F)C(F)(F)F)nn1 [Compound 126, 3-[5-(4-cyclopropylphenyl)-3-(ethanesulfonyl)pyridin-2-yl]-6-(2,2,3,3,3-pentafluoropropoxy)pyridazine]	–	100%	100%	100%	pEC50 [6, 10]: > 5.00
CCS(=O)(=O)c1cc(-c2cnnc(C3CC3)c2)cnc1-c1nc2cc(C(F)(F)C(F)(F)F)cnc2n1C [Compound 195, 3-cyclopropyl-5-[5-(ethanesulfonyl)-6-[3-methyl-6-(1,1,2,2,2-pentafluoroethyl)imidazo[4,5-b]pyridin-2-yl]pyridin-3-yl]pyridazine]	–	100%	100%	–	EC80 [7, 11]: < 1 µM
CCS(=O)(=O)c1cc(-c2ccc(C3(C(F)(F)F)CC3)cc2)cnc1-c1nc2cc(C(F)(F)C(F)(F)F)ncc2n1C [compound 116]	–	–	–	–	pEC50 [3]: > 7.40
CCn1c(=O)c(C(F)(F)F)cc2nc(-c3ncc(-c4ccc(C5CC5)cc4)cc3S(=O)(=O)CC)n(C)c21 [compound 125]	1 to 10 µM	–	–	100%	–
CCS(=O)(=O)c1cc(-c2ccc(C3CC3(F)F)cc2)cnc1-c1nc2cc(C(F)(F)C(F)(F)F)cnc2n1C (centres unmarked) [compound 134]	1 to 10 µM	100%	100%	100%	pEC50 [6, 10]: 4.00 to 5.00; pEC50 ([6]; contact assay, >100 μM = not active at the top concentration, read-out: R. sanguineus contact activity EC50): 4.00 to 5.00; EC80 ([7]; 24 h, flea membrane feeding (ingestion, blood feeding) assay, EC80, read-out: C. felis membrane feeding (ingestion/blood feeding) activity EC80): 1 to 10 µM; EC80 [7, 11]: 1 to 10 µM
CCS(=O)(=O)c1cc(-c2cccnc2C2CC2)cnc1-c1nc2cc(C(F)(F)C(F)(F)F)nnc2n1C [compound 138]	< 1 µM	100%	100%	100%	EC80 [7, 11]: < 1 µM
CCS(=O)(=O)c1cc(-c2ccc(C3(C)CC3)cc2)cnc1-c1nc2cc(C(F)(F)C(F)(F)F)nnc2n1C [compound 154]	1 to 10 µM	100%	–	100%	pEC50 [6, 10]: 4.00 to 5.00
